A word on the pIC50: it is −log10 of the IC50, conventionally taken in molar units.

pIC50: −log10 of the molar value.

This experiment has as its target T1, hLBAT (Homo sapiens, UniProt Q14973).
T1 construct: expressed in transfected cells; kept under Geneticin selection
T1 sequence (Q14973 1-349): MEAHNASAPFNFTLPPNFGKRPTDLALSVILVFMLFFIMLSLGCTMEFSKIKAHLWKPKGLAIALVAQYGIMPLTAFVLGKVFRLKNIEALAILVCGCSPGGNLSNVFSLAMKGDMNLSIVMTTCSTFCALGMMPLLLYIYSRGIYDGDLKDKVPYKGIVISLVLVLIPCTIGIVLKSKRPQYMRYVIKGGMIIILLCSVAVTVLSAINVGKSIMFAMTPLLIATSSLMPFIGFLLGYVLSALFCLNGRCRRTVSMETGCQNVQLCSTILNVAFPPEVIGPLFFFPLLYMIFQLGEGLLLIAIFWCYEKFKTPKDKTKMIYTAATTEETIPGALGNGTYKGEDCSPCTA
Nature of the experiment: LBAT (h/m) assay: 3H-taurocholic acid uptake in human LBAT-overexpressing cells. The format is cell-based. Conditions: 0.3 μM 3H-taurocholic acid + 7.5 μM cold taurocholic acid, 20 minutes at 37° C. A digest of the protocol:
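Human or mouse LBAT-overexpressing cells given 10-point inhibitor series with 0.3 μM 3H-taurocholic acid plus cold taurocholic acid (7.5 μM human, 25 μM mouse), 0.2% DMSO, for 20 min at 37° C. Stopped on ice, washed with 1 mM unlabelled taurocholic acid; uptake measured by scintillation counting.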
In the case of `CCCCC1(CC)CN(c2ccccc2)c2cc(SC)c(CSCC(=O)O)cc2S(=O)(=O)C1` (single isomer, unassigned) [2, enantiomer 1], the pIC50 was 5.69.

For the compound `CCCCC1(C)CN(c2ccccc2)c2cc(SC)c(CSCC(=O)O)cc2S(=O)(=O)C1` (single isomer, unassigned) [5, enantiomer 1], the pIC50 is 5.22.

`CCCCC1(CC)CN(c2ccc(F)cc2)c2cc(SC)c(CSCC(=O)O)cc2S(=O)(=O)C1` (single isomer, unassigned) [7, enantiomer 1]: the pIC50 was 5.30.

Values taken from US20240067617A1 (Albireo AB, priority 2022, published 2024).
